{"source": "paper PMC4742190", "about": "“Mitotic entry: Non-genetic heterogeneity exposes the requirement for Plk1” (Oncotarget, 2015)", "assay_in_all_cases": "enzyme (kinase) assay", "format_in_all_cases": "biochemical", "key": {"Plk1": {"molecular_target": "Plk1 (Homo sapiens, UniProt P53350)", "sequence (P53350 2-603)": "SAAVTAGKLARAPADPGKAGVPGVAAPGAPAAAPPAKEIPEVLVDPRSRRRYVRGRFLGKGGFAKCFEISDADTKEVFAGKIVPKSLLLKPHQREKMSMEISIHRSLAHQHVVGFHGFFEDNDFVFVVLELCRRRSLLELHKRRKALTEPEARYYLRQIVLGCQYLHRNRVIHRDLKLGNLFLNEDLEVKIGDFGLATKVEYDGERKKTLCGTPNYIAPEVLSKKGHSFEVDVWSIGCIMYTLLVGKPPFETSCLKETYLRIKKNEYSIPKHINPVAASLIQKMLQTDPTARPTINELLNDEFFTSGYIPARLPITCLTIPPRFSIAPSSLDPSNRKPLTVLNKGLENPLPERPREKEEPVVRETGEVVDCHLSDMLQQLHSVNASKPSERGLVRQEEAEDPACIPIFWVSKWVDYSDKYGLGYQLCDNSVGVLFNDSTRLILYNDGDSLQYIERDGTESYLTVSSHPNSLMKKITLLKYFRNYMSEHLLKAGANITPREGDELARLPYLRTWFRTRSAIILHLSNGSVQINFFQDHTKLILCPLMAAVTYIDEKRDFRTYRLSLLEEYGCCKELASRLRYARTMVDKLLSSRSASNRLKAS"}, "Plk2": {"molecular_target": "Plk2 (Homo sapiens, UniProt Q9NYY3)", "sequence (Q9NYY3 whole entry)": "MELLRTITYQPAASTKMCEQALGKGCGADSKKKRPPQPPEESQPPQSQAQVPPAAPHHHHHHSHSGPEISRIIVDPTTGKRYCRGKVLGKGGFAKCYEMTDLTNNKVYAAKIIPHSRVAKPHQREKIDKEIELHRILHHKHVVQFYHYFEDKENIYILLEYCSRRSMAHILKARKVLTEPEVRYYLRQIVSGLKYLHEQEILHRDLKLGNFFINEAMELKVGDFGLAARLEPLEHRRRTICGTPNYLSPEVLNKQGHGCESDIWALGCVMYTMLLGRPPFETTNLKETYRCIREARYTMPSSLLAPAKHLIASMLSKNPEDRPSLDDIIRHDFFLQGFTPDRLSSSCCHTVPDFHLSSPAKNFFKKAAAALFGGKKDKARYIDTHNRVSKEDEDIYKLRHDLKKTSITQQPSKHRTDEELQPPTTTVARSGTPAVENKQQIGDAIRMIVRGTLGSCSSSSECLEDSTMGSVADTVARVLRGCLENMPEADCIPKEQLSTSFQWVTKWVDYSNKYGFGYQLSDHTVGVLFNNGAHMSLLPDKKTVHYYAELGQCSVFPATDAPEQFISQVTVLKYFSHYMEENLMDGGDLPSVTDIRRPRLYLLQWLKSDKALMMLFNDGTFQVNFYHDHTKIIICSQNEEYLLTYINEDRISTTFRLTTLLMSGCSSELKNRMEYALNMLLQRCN"}, "Plk3": {"molecular_target": "Plk3 (Homo sapiens, UniProt Q9H4B4)", "sequence (Q9H4B4 whole entry)": "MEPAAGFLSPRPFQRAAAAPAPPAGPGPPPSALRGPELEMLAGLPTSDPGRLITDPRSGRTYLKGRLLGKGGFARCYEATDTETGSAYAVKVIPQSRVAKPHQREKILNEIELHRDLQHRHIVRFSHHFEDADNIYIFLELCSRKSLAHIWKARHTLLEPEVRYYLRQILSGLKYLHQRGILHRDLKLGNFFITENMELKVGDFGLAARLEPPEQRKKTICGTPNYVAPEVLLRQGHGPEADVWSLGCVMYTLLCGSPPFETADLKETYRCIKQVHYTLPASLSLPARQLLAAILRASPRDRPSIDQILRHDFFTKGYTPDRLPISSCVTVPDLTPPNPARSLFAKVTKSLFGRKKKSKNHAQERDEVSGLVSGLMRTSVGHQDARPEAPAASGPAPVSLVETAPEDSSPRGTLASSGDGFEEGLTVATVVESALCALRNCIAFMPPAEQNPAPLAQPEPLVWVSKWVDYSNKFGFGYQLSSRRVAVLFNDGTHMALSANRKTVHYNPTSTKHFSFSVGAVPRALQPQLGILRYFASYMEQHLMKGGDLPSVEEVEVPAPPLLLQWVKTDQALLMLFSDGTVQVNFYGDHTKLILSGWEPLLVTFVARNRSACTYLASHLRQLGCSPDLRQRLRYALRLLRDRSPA"}}, "data": [{"substance": "CYC140844", "values": [{"measurement": "IC50", "setting": "Plk1", "value": 36, "unit": "nM"}, {"measurement": "IC50", "setting": "Plk2", "value": 113, "unit": "nM"}, {"measurement": "IC50", "setting": "Plk3", "value": 702, "unit": "nM"}]}]}
